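Step 1: Grow cells in 96-well plates. Step 2: Expose to compound for 48 hours at 5 concentrations. Step 3: Interpolate endpoints linearly; if unreached, use highest concentration. The concentration for full growth arrest is given as TGI.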
Columns and labels:
Assay in all cases: DTP human tumour cell line panel, 48 h
BT-549 breast = system: BT-549 breast
ACHN renal = system: ACHN renal
SK-MEL-2 melanoma = system: SK-MEL-2 melanoma
HS 578T breast = system: HS 578T breast
OVCAR-5 ovarian = system: OVCAR-5 ovarian
SK-OV-3 ovarian = system: SK-OV-3 ovarian
OVCAR-3 ovarian = system: OVCAR-3 ovarian
T-47D breast = system: T-47D breast
MOLT-4 leukemia = system: MOLT-4 leukemia
COLO 205 colon = system: COLO 205 colon

Compound | TGI (BT-549 breast) [µM] | TGI (ACHN renal) [µM] | TGI (SK-MEL-2 melanoma) [µM] | TGI (HS 578T breast) [µM] | TGI (OVCAR-5 ovarian) [µM] | TGI (SK-OV-3 ovarian) [µM] | TGI (OVCAR-3 ovarian) [µM] | TGI (T-47D breast) [µM] | TGI (MOLT-4 leukemia) [µM] | TGI (COLO 205 colon) [µM]
CC(C)C1(O)C(=O)N(c2c(F)c(F)c(F)c(F)c2F)C(=S)N1CCSc1ccccc1 (stereo not given) | 30.4 | 31.3 | 32.5 | 39.7 | 33 | 31 | 30.1 | 33.6 | 30.7 | 32.9
Cc1ccc(/C(O)=C/c2nc3ccc([N+](=O)[O-])cc3nc2/C=C(\O)c2ccc(C)cc2)cc1 | > 100 | > 100 | > 100 | > 91.4 | > 100 | 97.6 | > 100 | > 100 | > 100 | > 100
CCOC(=O)C1CCCCN1CCc1c[nH]c2ccccc12 (stereo not given) | > 100 | > 100 | > 100 | > 100 | > 100 | > 100 | > 100 | 97.1 | > 100 | > 100
O=C1CC(n2cccc2)c2c(Br)sc(Br)c21 (stereo not given) | 34.3 | 31.8 | 29.1 | > 72.3 | 32.5 | 35.2 | 33.2 | 46.3 | 33.6 | 30.7
CSc1ccc(/C=C2\N=C(c3ccccc3)N(/N=C/c3cc4cc(C)ccc4nc3Cl)C2=O)cc1 | 56.5 | 35.1 | 43.7 | 65.9 | 74.9 | 66.1 | 48.7 | 91 | 37.2 | 39.4
C=C(C)[C@@H]1CC[C@]2(C(=O)O)CC[C@]3(C)[C@H](CCC4[C@@]5(C)CC[C@H](C(=O)/C=C/c6ccc(O)c(O)c6)C(C)(C)[C@@H]5CC[C@]43C)[C@@H]12 (stereo not given in full) | > 100 | 6.51 | 38 | 46.2 | 26.7 | 19.4 | 22.5 | 95.7 | > 100 | 13.8
O=C(c1ccco1)N(C(=S)OC12CC3CC(CC(C3)C1)C2)c1ccccc1 | > 100 | 83.6 | 40.9 | 98 | > 100 | > 100 | 77.4 | > 100 | > 100 | 32.4
C=C1C(=O)O[C@H]2[C@H]3O[C@@H](C[C@@H]12)[C@](C)(O)CC[C@@H]1O[C@@]1(C)CCC[C@H]3C | 31.5 | 31.4 | 43.6 | > 100 | > 100 | > 100 | 46.6 | 82.4 | > 100 | 30
Cc1ccccc1OC(C)C(=O)NN1C(=O)CC(=O)N(c2ccccc2)C1=S (stereo not given) | > 100 | > 100 | > 100 | > 100 | > 100 | > 100 | > 100 | > 100 | > 100 | > 100
NC(=O)Cc1nc2c(=O)[nH]cnc2n1C1OC(CO)C(O)C1O (stereo not given) | > 100 | > 100 | > 100 | > 100 | > 100 | > 100 | > 100 | > 100 | > 100 | > 100
Cc1[nH]c(=O)[nH]c(=S)c1C(=O)Nc1cccc2cc3ccccc3cc12 | > 100 | > 100 | > 100 | > 100 | > 100 | > 100 | > 100 | > 100 | > 100 | > 100
Cc1cc2cc3c(cc2c(-c2ccc(N)cc2)n1)OCO3 | > 100 | > 100 | > 100 | > 100 | > 100 | > 100 | 67.9 | > 100 | 39.6 | 88.5
CO[C@H]1C[C@H](O[C@H]2CC[C@]3(C=O)[C@H]4CC[C@]5(C)[C@@H](C6=CC(=O)OC6)CC[C@]5(O)[C@@H]4CC[C@]3(O)C2)O[C@H](C)[C@H]1O | 0.818 | 1.92 | 2.04 | > 31.6 | 1.35 | 0.815 | 0.556 | 5.31 | 2.89 | 1.83
NCCC1CN(C(=O)OCc2ccccc2)c2ccccc21 (stereo not given) | 40.4 | > 54.6 | 36.3 | 56.8 | 45.4 | > 59.6 | 45.6 | 28 | 52.1 | 31.5
CCOC(=O)C1(C(F)(F)F)N=C(CC)OC(N2CCOCC2)=N1 (stereo not given) | > 100 | > 100 | > 100 | > 100 | > 100 | > 100 | > 100 | > 100 | > 100 | > 100
CCOC(=O)c1cnccc1CC1(C#N)c2ccccc2C=CN1C(=O)c1ccccc1 (stereo not given) | > 100 | > 100 | 41.4 | 46.4 | > 100 | > 100 | > 100 | > 100 | 50.8 | > 100
CN(C)c1ccc(/C=C2\N=C(c3ccccc3)N(c3ccc4c(c3)Sc3cc(N5C(=O)/C(=C/c6ccc(N(C)C)cc6)N=C5c5ccccc5)ccc3N4)C2=O)cc1 | 66.6 | 30.4 | 38.3 | 72.7 | 40.8 | 26.7 | 25.8 | 48 | > 100 | > 100
N/C(=N\Nc1ccc(S(N)(=O)=O)cc1)c1cnccn1 | > 100 | > 100 | > 100 | > 100 | > 100 | > 100 | > 100 | > 100 | > 100 | > 100
O=C1c2ccccc2-c2[nH]c3cn[nH]c(=O)c3c21 | > 100 | > 100 | > 100 | > 100 | > 100 | > 100 | > 100 | > 100 | > 100 | > 100
Cn1c2ccccc2n2c3ncccc3c(=S)c(C#N)c12 | > 100 | > 100 | > 100 | > 100 | > 100 | > 100 | > 100 | > 100 | > 100 | > 100
N#Cc1nc(C#N)n(C(=O)c2ccccc2)c1NC(=O)c1ccccc1 | > 100 | > 100 | > 100 | > 100 | > 100 | > 100 | > 100 | > 100 | > 100 | > 100
CN1C(=O)C(O)CC1c1cccc(C(F)(F)F)c1 (stereo not given) | > 100 | > 100 | > 100 | > 100 | > 100 | > 100 | > 100 | > 100 | > 100 | > 100
CCCNc1ncnc2[nH]ncc12 | > 100 | > 100 | > 100 | > 100 | > 100 | > 100 | > 100 | > 100 | > 100 | > 100
COc1ccc(-c2cc(C(O)C3CCCCN3)c3ccccc3n2)cc1 (stereo not given) | 32.2 | 24.4 | 18.5 | 40.3 | 24.8 | 27.3 | 27.8 | 14.1 | 13.6 | 3.54
NCCOCC(N)C(=O)O (stereo not given) | > 100 | > 100 | > 100 | > 100 | > 100 | > 100 | > 100 | > 100 | > 100 | > 100
Cc1cc2c(c(=O)n1C)SCC2 | > 100 | > 100 | > 100 | > 100 | > 100 | > 100 | > 100 | > 100 | > 100 | > 100
O=c1cc(NCc2ccncc2)[nH]c(=O)[nH]1 | > 100 | > 100 | > 100 | > 100 | > 100 | > 100 | > 100 | > 100 | > 100 | > 100

From PubChem BioAssay (NCI)
